36 compounds from patent publication US20220340665A1, “INHIBITOR AGAINST EXPRESSION OF IMMUNE CHECKPOINT MOLECULE” (RENASCIENCE INC., priority 2019, published 2022) can be followed below.

The target of the test is human PAI-1 (Homo sapiens, UniProt P05121). The test is described as follows: PAI-1 inhibitory activity, t-PA with Spectrozyme t-PA chromogenic substrate (Reference Experimental Example 2). Type of test: biochemical. Details: purchased Molecular Innovations, Inc. (USA). On the procedure:
Subsequently, human-derived tissue plasminogen activator (t-PA) (manufactured by American Diagnostica, Inc. (USA); the same applies hereinafter) adjusted to 0.05 pmol/μL was added thereto, and the mixture was further incubated at 37° C. for 60 minutes. Then, 0.25 mM of Spectrozyme t-PA synthetic substrate (manufactured by American Diagnostica, Inc. (USA); the same applies hereinafter), which is a chromogenic substrate, was added. […]
Free p-nitroaniline removed from the chromogenic substrate (Spectrozyme t-PA) by t-PA action was measured using a spectrophotometer at an absorbance of 405 nm at 20-minute intervals, for 120 minutes.

Where [1] appears, read: compound 10 μm (head), system without compound after 120 minutes = 100%.
Where [2] appears, read: Tables 5 to 7, first value column, head prints no concentration.
Where [3] appears, read: Tables 5 to 7, second value column, head prints no concentration.
The mark [4] stands for this setting: compound 25 μm (head), system without compound after 120 minutes = 100%.

Chain of human PAI-1 (P05121 24-402): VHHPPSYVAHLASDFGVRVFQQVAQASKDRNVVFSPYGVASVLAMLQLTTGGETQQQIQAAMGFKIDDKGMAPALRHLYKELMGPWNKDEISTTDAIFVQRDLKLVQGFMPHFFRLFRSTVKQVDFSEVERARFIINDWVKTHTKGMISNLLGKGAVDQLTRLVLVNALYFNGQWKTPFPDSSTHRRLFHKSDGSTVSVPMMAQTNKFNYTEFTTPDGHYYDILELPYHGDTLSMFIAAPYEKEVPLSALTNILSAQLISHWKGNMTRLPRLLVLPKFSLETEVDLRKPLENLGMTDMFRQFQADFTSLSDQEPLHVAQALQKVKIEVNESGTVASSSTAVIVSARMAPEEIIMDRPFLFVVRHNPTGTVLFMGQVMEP

As for `COc1ccccc1-c1cccc(OCC(=O)Nc2ccc(Cl)cc2C(=O)O)c1` [Example 61, 5-chloro-2-((((2'-methoxybiphenyl-3-yl)oxy)acetyl)amino)benzoic acid], the PAI-1 activity % under setting [1] is 36.9%.
As for `O=C(Nc1ccc(Cl)cc1C(=O)[O-])c1ccc(OCc2ccc3ccccc3n2)cc1.[Na+]` [Example 100, 5-chloro-2-(((4-(quinolin-2-ylmethoxy)phenyl)carbonyl)amino)sodium benzoate], the PAI-1 activity % was 0.7% under setting [2] and 92.1% under setting [3].
In the case of `O=C(Nc1ccc(Cl)cc1C(=O)O)c1cccc(-c2cccc3ccccc23)c1` [Example 58, 5-chloro-2-(((3-(naphthalen-1-yl)phenyl)carbonyl)amino)benzoic acid], the PAI-1 activity % under setting [1] came out at 0.0% and the PAI-1 activity % under setting [4] is 0.0%.
On to `O=C(Nc1ccc(Cl)cc1C(=O)O)c1ccc(C(=O)C23CC4CC(CC(C4)C2)C3)cc1` [Example 56], for which the PAI-1 activity % under setting [1] was 0.7% and the PAI-1 activity % under setting [4] was 75.8%.
Take `Cc1ccc(C23CC4CC(CC(C(=O)Nc5ccc(Cl)cc5C(=O)O)(C4)C2)C3)cc1` [Example 86]: the PAI-1 activity % is, setting by setting: under setting [2], 1.4%; under setting [3], 63.5%.
Turning to `C#Cc1ccc(NC(=O)c2ccc(C3CCCCC3)cc2)c(C(=O)O)c1` [Example 95, 2-(((4-cyclohexylphenyl)carbonyl)amino)-5-ethynlbenzoic acid], the PAI-1 activity % under setting [2] is 0.3% and the PAI-1 activity % under setting [3] was 80.5%.
As to `O=C(Nc1ccc(Cl)cc1C(=O)[O-])c1ccc(-c2cccc3cccnc23)cc1.[Na+]` [Example 67, 5-chloro-2-(((4-(quinolin-8-yl)phenyl)carbonyl)amino)sodium benzoate], the PAI-1 activity % is, setting by setting: under setting [1], 0.6%; under setting [4], 90.4%.
For `O=C(COc1cccc(C23CC4CC(CC(C4)C2)C3)c1)Nc1ccc(Cl)cc1C(=O)O` [Example 30], in that order: 1.3% and 19.3%.
`O=C(Nc1ccc(Cl)cc1C(=O)[O-])c1cccc(-c2cccc3ncccc23)c1.[Na+]` [Example 65, 5-chloro-2-(((3-(quinolin-50yl)phenyl)carbonyl)amino)sodium benzoate]: the PAI-1 activity % amounted to 0.4% under setting [1] and 71.7% under setting [4].
On to `CC(C)(C)c1cccc(OCC(=O)Nc2ccc(Cl)cc2C(=O)O)c1` [Example 16, 2-(((3-tert-butylphenoxy)acetyl)amino)-5-chlorobenzioc acid], for which the PAI-1 activity % by setting is: under setting [1], 21.9%; under setting [4], 77.4%.
On the same counts, the results for `CC(C)(Oc1cccc(-c2ccoc2)c1)C(=O)Nc1ccc(Cl)cc1C(=O)O` [Example 44, 5-chloro-2-((2-(3-(furan-3-yl)phenoxy)-2-methylpropenoyl)amino)benzoic acid] are 20.4% and 97.6%.
With `O=C(COc1ccccc1-c1ccccc1)Nc1ccc(-c2ccoc2)cc1C(=O)O` [Example 46, 2-(((biphenyl-2-yloxy)acetyl)amino)-5-(furan-3-yl)benzoic acid], the PAI-1 activity % came out at 0.4% under setting [1] and 69.9% under setting [4].
Consider `O=C(C=Cc1ccc(C23CC4CC(CC(C4)C2)C3)cc1)Nc1ccc(Cl)cc1C(=O)O` [Example 94, 2-((3-(4-(adamantan-1-yl)phenyl)prop-2-enoyl)amino)-5-chlorobenzoic acid], for which the PAI-1 activity % was determined as 7.4% under setting [2] and 3.5% under setting [3].
`O=C(Nc1ccc(Cl)cc1C(=O)O)c1ccc(C2=CCOCC2)cc1` [Example 32, 5-chloro-2-(((4'-(3,6-dihydro-2H-pyran-4-yl)phenyl)carbonyl)amino)benzoic acid]: the PAI-1 activity % under setting [1] was found to be 1.7% and the PAI-1 activity % under setting [4] is reported as 94.4%.
With `O=C(O)c1cc(Cl)ccc1NC(=O)c1cccc2c1Cc1ccccc1-2` [Example 38, 5-chloro-2-((9H-fluoren-1-ylcarbonyl)amino)benzoic acid], the PAI-1 activity % under setting [4] was found to be 94.6%.
Turning to `O=C(COc1ccc(C23CC4CC(CC(C4)C2)C3)cc1)Nc1ccc(Cl)cc1C(=O)O` [Example 21], the PAI-1 activity % under setting [1] is reported as 0.3% and the PAI-1 activity % under setting [4] is listed as 10.0%.
As to `O=C(COc1ccc(C2CCCCC2)cc1)Nc1ccc(Cl)cc1C(=O)O` [Existing compound 3, 5-chloro-2-(((4-cyclohexylphenoxy)aceytl)amino)benzoic acid, reference compound], the PAI-1 activity % under setting [2] came to 0.3% and the PAI-1 activity % under setting [3] was determined as 36.3%.
For the compound `O=C(COC(c1ccccc1)c1ccccc1)Nc1ccc(Cl)cc1C(=O)O` [Example 76, 5-chloro-2-(((diphenylmethoxy)acetyl)amino)benzoic acid], the PAI-1 activity % under setting [2] is listed as 30.5%.
In the case of `O=C(/C=C(/Cl)C1CCCCC1)Nc1ccc(Cl)cc1C(=O)O` [Example 91, 5-chloro-2-(((2E)-3-chloro-3-cyclohexlprop-2-encyl)amino)benzoic acid], the PAI-1 activity % under setting [2] is 16.7% and the PAI-1 activity % under setting [3] was 96.9%.
Regarding `O=C(Nc1ccc(Cl)cc1C(=O)[O-])c1cccc(-c2cnc3ccccc3c2)c1.[Na+]` [Example 63, 5-chloro-2-(((3-(quinolin-3-yl)phenyl)carbonyl)amino)sodium benzoate], the PAI-1 activity % is, setting by setting: under setting [1], 0.3%; under setting [4], 21.3%.
Consider `O=C(O)c1cc(Cl)ccc1NC(=O)C1(c2cccc(-c3ccoc3)c2)CC1` [Example 35, 5-chloro-2-(((1-(3-(furan-3-yl)phenyl)cyclopropyl)carbonyl)amino)benzoic acid], for which the PAI-1 activity % under setting [4] is reported as 96.8%.
In the case of “5-chloro-2-((3-(3-(furan-3-yl)phenyl)propenoyl)amino)benzoic acid [Example 36]”, the PAI-1 activity % is, setting by setting: under setting [1], 3.7%; under setting [4], 95.7%.
Regarding “5-chloro-2-(((3-(cyclohex-1-en-1yl)phenyl)acetyl)amino)benzoic acid [Example 25]”, the PAI-1 activity % reads like this: under setting [1], 0.0%; under setting [4], 85.8%.
With `Cl.O=C(O)c1cc(Cl)ccc1NC(=O)N1CCN(C(c2ccccc2)c2ccccc2)CC1` [Example 75, 5-chloro-2-(((4-(diphenylmethyl)piperacin-1-yl)carbonyl)amino)benzoic acid hydrochloride], the PAI-1 activity % runs as follows: under setting [2], 4.7%; under setting [3], 86.4%.
On the same counts, the results for `O=C(/C=C/c1cccc(-c2cccnc2)c1)Nc1ccc(Cl)cc1C(=O)[O-].[Na+]` [Example 103, 5-chloro-2-(((2E)-3-[3-(pyridin-3-yl)phenyl]prop-2-enoyl)amino)sodium benzoate] are 34.2% and 92.3%.
Take `CC(C)(C)c1cccc(OCC(=O)Nc2ccc(Cl)cc2C(=O)O)c1` [Example 18, 2-(((3-tert-butylphenoxy)acetyl)amino)-5-chlorobenzoic acid]: the PAI-1 activity % was found to be 16.1% under setting [1] and 81.4% under setting [4].
With `O=C(Nc1ccc(Cl)cc1C(=O)O)c1cccc(C2=CCCCC2)c1` [Example 79, 5-chloro-2-(((3-(cyclohex-1-en-1yl-)phenyl)carbonyl)amino)benzoic acid], the PAI-1 activity % stood at 1.6% under setting [2] and 44.5% under setting [3].
For `O=C([O-])c1cc(Cl)ccc1NC(=O)c1cc(-c2ccccc2)nc2ccccc12.[Na+]` [Example 107, 5-chloro-2-(((2-phenylquinolin-4-yl)carbonyl)amino)sodium benzoate], in that order: 6.7% and 100.0%.
As to `Cn1c(C(=O)Nc2ccc(Cl)cc2C(=O)O)cc2cc(Br)ccc21` [Example 23], the PAI-1 activity % reads like this: under setting [1], 1.8%; under setting [4], 97.3%.
On to “2-((biphenyl-4-ylcarbonoyl)amino)-5-chlorobenzoic acid [Example 71]”, for which the PAI-1 activity % under setting [2] is listed as 2.1% and the PAI-1 activity % under setting [3] is given as 39.6%.
For `O=C(Nc1ccc(C2=CCCCC2)cc1C(=O)O)c1ccc(C2CCCCC2)cc1` [Example 81, 5-(cyclohex-1-en-1-yl)-2-(((4-cylcohexylphenyl)carbonyl)amino)benzoic acid], in that order: 0.0% and 1.0%.
As to `O=C(Nc1ccc(Cl)cc1C(=O)O)c1ccc(C2=CCOCC2)cc1` [Example 34, 5-chloro-2-(((4-(3,6-dihyrdo-2H-pyran-4-yl)phenyl)carbonyl)amino)benzoic acid], the PAI-1 activity % amounted to 45.1% under setting [1] and 97.1% under setting [4].
Turning to `O=C(Nc1ccc(CCC2CCCCC2)cc1C(=O)O)c1ccc(C2CCCCC2)cc1` [Example 93, 5-(2-cyclohexylethyl)2-(((4-cyclohexylphenyl)carbonyl)amino)beznoic acid], the PAI-1 activity % reads like this: under setting [2], 0.0%; under setting [3], 0.0%.
As for `O=C(Nc1ccc(Cl)cc1C(=O)[O-])c1cccc(OCc2ccc3ccccc3n2)c1.[Na+]` [Example 99, 5-chloro-2-(((3-(quinolin-2-ylmethoxy)phenyl)carbonyl)amino)sodium benzoate], the PAI-1 activity % by setting is: under setting [2], 0.3%; under setting [3], 87.8%.
Take “5-chloro-2-(((4-(methylcyclohexyl)phenyl)carbonyl)amino)benzoic acid [Example 98]”: the PAI-1 activity % under setting [2] turned out to be 0.1% and the PAI-1 activity % under setting [3] was determined as 41.5%.
As to `O=C(Nc1ccc(Cl)cc1C(=O)[O-])c1cccc(-c2ccncc2)c1.[Na+]` [Example 8, 5-chloro-2-(((3-(pyridin-4-yl)phenyl)carbonyl)amino)sodium benzoate], the PAI-1 activity % is, setting by setting: under setting [1], 28.5%; under setting [4], 100.3%.
